Data taken from US9649313B2, “Use of ITK inhibitors for the treatment of cancer” (The University of North Carolina at Chapel Hill, priority 2012, dated 2017).

Tests used:
PMWK (ITKLO) cells = assay: cell cycle analysis (EdU, FxCycle Violet); assay type: cell-based, Human; settings: 3 days of treatment
Experimental: (§1) FIG. 5A-5C. Effects of BI 10N inhibitor on proliferation and motility of melanoma cells. FIG. 5A) Cell motility assays were performed as described in FIG. 4A-4E; however, the inhibitor BI 10N was added to the media to decrease ITK kinase activity in parental cell lines instead of using the shRNA ITK knockdown cell lines. BI 10N was added to the media 24 hours prior to the start of the motility assay and the VivaView camera system was used to image cellular motility of the melanoma cells as described previously. FIG. 5B) The proliferation assays were completed as described in FIG. 4A-4E, substituting the BI 10N compound for the shRNA. Cells were trypsinized and counted using the Invitrogen Countess. Fifty thousand cells were placed into each well of a 6 well plate and BI 10N was added to the indicated concentrations. The cells were counted with the Invitrogen Countess at 3, 5, and 6 or 7 days after plating to assess the proliferation rates of the different cell lines in the presence of BI 10N. FIG. 5C) Both ITKHI (RPMI 8322) and ITKLO (PMWK) melanoma cell lines were grown in the presence of BI 10N (10-200 nM) in soft agar. In 24-well cell culture plates 2,500 cells per well were added to a 1.4% agarose solution. The agarose and cell solution was then poured on top of a solidified base agar. The cells were incubated at 37° C. for three to four weeks to ensure adequate growth before analysis. FIG. 5D) Cell cycle analysis of PMWK, VMM 39, and RPMI 8322 cells that have been treated with increasing concentrations of BI 10N. Following 3 days of BI 10N treatment, the cells were incubated with EdU for 3 hours and were subsequently assessed for 5-ethynyl-2′-deoxyuridine (EdU) incorporation rate and DNA content with FxCycle Violet. Shown in this panel are the percentages of cells in G0/G1 (low DNA and EdU content), S (high EdU and low-to-medium DNA content), and G2/M (Low EdU and high DNA content)
(§2) Melanoma cells were grown to approximately 60% confluence in T25 tissue culture flasks (Corning Product #430639). […]

RPMI 8322 (ITKHI) cells = assay: cell cycle analysis (EdU, FxCycle Violet); assay type: cell-based, Human; settings: 3 days of treatment, dose-dependent
Experimental: as §1, §2

VMM 39 (ITKHI) cells = assay: cell cycle analysis (EdU, FxCycle Violet); assay type: cell-based, Human; settings: 3 days of treatment, dose-dependent
Experimental: as §1, §2

[1] = target: T1, phosphorylated (active) form of ITK in RPMI 8322 cells (Homo sapiens, UniProt Q08881); assay: two-dimensional electrophoresis and western blot of ITK isoforms; assay type: cell-based; settings: RPMI 8322 cells treated for 3 days
T1 construct: endogenous in cells; host or cells: RPMI 8322 human melanoma cells
Source text: Therefore, alternatively, we performed two-dimensional electrophoresis on whole cell lysates obtained from RPMI 8322 cells that had been treated with phosphatase or different concentrations of BI 10N for 3 days prior to harvest followed by western blot analysis using the ITK antibody. In untreated RPMI 8322 cells, two charge isoforms that migrated with the appropriate weight for ITK were identified by immunoblot analysis. […] These observations indicate that the formation of the phosphorylated (active) form of ITK is inhibited in the presence of ≧25 nM of BI 10N (data not shown).

[2] = system: RPMI 8322 (ITKHI) melanoma cell line; assay: single cell motility assay; assay type: cell-based, Human; settings: 10-25 nM
Source text: (§3) FIG. 4A-4E. Effects of ITK knockdown on proliferation and motility of melanoma cells. FIG. 4A) Western of lysates of VMM 39 containing each of the four shRNA constructs using rabbit monoclonal anti ITK (Y401). FIG. 4B) The four shRNA lentiviral constructs were used to transduce three melanoma cell lines, PMWK (ITKLO), VMM 39 (ITKHI), and RPMI 8322 (ITKHI). 50,000 cells were placed into each well of a 6 well plate, which was then counted 3, 5, and 6, or 7 days after plating to assess the proliferation rates of the different cell lines. FIG. 4C) Single Cell Motility assays were performed on three different melanoma cell lines, PMWK, VMM 39, and RPMI 8322. Each melanoma cell line was transduced with the four shRNA lentiviral constructs producing a total of 12 cell lines. 10,000 cells were plated on fibronectin coated glass bottom dishes. Pictures were taken once every 40 minutes for 16 hours. FIG. 4D) Cell cycle analysis of PMWK, VMM 39, and RPMI 8322 cells that have been transduced with various shRNAs. Cells were harvested after 3 hours of incubation with 5-ethynyl-2′-deoxyuridine (EdU). EdU incorporation and DNA content with FxCycle Violet were analyzed using flow cytometry. Illustrated in this panel are the percentages of cells in G0/G1 (low DNA and EdU content), S (high EdU and low-to-medium DNA content), and G2/M (Low EdU and high DNA content). FIG. 4E) Single-cell motility analysis of PMWK, VMM 39, and RPMI 8322 that have been transduced with various shRNAs. At least 50 cells were tracked for each cell line and the average motility rate was determined. Shown with asterisks are the shRNA-transduced melanoma cell lines with significant impairment in motility (P<0.001 one-way ANOVA following Bonferroni adjustments for multiple comparisons).
(§4) FIG. 5A-5C. Effects of BI 10N inhibitor on proliferation and motility of melanoma cells. FIG. 5A) Cell motility assays were performed as described in FIG. 4A-4E; however, the inhibitor BI 10N was added to the media to decrease ITK kinase activity in parental cell lines instead of using the shRNA ITK knockdown cell lines. BI 10N was added to the media 24 hours prior to the start of the motility assay and the VivaView camera system was used to image cellular motility of the melanoma cells as described previously. […] Cells were trypsinized and counted using the Invitrogen Countess. […] The cells were counted with the Invitrogen Countess at 3, 5, and 6 or 7 days after plating to assess the proliferation rates of the different cell lines in the presence of BI 10N. […] Following 3 days of BI 10N treatment, the cells were incubated with EdU for 3 hours and were subsequently assessed for 5-ethynyl-2′-deoxyuridine (EdU) incorporation rate and DNA content with FxCycle Violet. […]

[3] = system: VMM 39 (ITKHI) melanoma cell line; assay: single cell motility assay; assay type: cell-based, Human; settings: VMM39; 10-25 nM
Source text: as §3, §4

FYN = target: T2, FYN (Homo sapiens, UniProt P06241); assay: cell-free kinase assay; assay type: biochemical; settings: Table 2, by Carna Biosciences
T2 construct: purchased Carna Biosciences
Source text: (§5) We investigated the potency and selectivity of BI 10N against 56 kinases using a cell-free assay (Table 8A). […] The selectivity of this inhibitor was investigated by testing the potency of the inhibitor at two concentrations with 53 kinases by Carna Biosciences (MA) (Table 2).

ABL = target: T3, ABL (Homo sapiens, UniProt P00519); assay: cell-free kinase assay; assay type: biochemical
T3 construct: purchased Carna Biosciences
Source text: as §5

IGF1R = target: T4, IGF1R (Homo sapiens, UniProt P08069); assay: cell-free kinase assay; assay type: biochemical
T4 construct: purchased Carna Biosciences
Source text: as §5

LCK = target: T5, LCK (Homo sapiens, UniProt P06239); assay: cell-free kinase assay; assay type: biochemical
T5 construct: purchased Carna Biosciences
Source text: as §5

FGFR1 = target: T6, FGFR1 (Homo sapiens, UniProt P11362); assay: cell-free kinase assay; assay type: biochemical
T6 construct: purchased Carna Biosciences
Source text: as §5

TRKC = target: T7, TRKC (Homo sapiens, UniProt Q16288); assay: cell-free kinase assay; assay type: biochemical
T7 construct: purchased Carna Biosciences
Source text: as §5

T6 sequence (P11362 22-822): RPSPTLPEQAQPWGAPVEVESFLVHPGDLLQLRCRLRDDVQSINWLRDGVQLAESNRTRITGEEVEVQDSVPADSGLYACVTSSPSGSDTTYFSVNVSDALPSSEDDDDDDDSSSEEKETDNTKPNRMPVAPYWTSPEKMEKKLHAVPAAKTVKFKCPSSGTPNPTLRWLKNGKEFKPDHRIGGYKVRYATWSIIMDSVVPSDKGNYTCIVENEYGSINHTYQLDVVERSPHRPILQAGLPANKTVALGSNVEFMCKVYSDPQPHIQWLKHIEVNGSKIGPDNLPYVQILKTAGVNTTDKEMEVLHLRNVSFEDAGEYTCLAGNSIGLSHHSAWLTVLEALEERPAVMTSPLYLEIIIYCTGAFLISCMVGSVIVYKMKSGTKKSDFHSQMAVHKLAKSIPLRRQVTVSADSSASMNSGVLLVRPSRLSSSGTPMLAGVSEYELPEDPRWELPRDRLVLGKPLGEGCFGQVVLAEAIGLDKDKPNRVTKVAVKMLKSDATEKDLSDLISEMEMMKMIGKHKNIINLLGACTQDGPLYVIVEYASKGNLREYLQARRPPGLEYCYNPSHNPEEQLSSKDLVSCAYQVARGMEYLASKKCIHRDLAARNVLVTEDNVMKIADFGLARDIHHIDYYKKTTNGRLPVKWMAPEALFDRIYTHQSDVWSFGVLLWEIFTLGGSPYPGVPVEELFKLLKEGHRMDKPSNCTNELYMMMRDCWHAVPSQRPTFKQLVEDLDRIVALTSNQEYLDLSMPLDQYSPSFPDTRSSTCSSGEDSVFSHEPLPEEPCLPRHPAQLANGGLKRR
T3 sequence (P00519 whole entry): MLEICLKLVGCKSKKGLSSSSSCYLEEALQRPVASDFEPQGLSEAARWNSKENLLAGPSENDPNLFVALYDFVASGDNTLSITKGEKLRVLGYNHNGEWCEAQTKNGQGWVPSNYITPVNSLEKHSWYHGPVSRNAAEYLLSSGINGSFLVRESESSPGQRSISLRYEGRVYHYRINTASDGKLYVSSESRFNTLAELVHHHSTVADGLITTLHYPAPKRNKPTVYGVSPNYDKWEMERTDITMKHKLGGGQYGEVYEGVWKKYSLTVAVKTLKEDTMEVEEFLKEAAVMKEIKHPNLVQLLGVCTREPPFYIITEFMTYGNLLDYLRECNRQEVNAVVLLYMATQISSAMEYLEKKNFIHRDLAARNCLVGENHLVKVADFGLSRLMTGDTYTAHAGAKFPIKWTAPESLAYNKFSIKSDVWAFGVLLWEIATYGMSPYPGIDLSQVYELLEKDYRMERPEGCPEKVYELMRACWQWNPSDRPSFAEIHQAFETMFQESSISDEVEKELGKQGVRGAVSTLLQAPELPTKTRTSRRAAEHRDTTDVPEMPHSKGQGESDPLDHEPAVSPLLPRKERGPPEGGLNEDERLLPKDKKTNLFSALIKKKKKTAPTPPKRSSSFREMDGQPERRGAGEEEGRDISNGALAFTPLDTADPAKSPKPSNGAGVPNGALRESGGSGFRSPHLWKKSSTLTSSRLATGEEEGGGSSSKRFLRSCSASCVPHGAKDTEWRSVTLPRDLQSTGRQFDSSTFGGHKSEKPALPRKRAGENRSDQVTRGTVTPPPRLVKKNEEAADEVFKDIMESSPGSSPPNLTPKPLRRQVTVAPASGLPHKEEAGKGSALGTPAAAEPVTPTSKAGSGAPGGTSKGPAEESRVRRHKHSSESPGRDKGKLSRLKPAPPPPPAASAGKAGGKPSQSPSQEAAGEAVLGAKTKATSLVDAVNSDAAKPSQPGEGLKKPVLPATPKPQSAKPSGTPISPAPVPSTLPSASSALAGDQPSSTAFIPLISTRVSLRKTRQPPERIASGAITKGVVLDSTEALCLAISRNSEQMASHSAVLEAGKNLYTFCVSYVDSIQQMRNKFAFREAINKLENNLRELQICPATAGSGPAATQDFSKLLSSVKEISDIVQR
T5 sequence (P06239 whole entry): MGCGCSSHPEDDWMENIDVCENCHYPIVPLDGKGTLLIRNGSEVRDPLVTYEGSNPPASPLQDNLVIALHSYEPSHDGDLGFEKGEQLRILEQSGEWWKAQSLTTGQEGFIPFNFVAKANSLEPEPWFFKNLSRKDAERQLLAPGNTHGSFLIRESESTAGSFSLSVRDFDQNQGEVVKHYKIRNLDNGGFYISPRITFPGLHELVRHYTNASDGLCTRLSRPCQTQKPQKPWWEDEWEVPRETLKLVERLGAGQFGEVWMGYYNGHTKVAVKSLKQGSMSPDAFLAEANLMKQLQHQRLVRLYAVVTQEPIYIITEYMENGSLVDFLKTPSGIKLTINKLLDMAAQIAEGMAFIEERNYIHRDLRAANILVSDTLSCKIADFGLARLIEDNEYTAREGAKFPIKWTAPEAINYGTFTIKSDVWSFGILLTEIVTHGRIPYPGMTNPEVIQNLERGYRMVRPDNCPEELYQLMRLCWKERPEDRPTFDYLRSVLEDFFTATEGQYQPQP
T4 sequence (P08069 31-1367): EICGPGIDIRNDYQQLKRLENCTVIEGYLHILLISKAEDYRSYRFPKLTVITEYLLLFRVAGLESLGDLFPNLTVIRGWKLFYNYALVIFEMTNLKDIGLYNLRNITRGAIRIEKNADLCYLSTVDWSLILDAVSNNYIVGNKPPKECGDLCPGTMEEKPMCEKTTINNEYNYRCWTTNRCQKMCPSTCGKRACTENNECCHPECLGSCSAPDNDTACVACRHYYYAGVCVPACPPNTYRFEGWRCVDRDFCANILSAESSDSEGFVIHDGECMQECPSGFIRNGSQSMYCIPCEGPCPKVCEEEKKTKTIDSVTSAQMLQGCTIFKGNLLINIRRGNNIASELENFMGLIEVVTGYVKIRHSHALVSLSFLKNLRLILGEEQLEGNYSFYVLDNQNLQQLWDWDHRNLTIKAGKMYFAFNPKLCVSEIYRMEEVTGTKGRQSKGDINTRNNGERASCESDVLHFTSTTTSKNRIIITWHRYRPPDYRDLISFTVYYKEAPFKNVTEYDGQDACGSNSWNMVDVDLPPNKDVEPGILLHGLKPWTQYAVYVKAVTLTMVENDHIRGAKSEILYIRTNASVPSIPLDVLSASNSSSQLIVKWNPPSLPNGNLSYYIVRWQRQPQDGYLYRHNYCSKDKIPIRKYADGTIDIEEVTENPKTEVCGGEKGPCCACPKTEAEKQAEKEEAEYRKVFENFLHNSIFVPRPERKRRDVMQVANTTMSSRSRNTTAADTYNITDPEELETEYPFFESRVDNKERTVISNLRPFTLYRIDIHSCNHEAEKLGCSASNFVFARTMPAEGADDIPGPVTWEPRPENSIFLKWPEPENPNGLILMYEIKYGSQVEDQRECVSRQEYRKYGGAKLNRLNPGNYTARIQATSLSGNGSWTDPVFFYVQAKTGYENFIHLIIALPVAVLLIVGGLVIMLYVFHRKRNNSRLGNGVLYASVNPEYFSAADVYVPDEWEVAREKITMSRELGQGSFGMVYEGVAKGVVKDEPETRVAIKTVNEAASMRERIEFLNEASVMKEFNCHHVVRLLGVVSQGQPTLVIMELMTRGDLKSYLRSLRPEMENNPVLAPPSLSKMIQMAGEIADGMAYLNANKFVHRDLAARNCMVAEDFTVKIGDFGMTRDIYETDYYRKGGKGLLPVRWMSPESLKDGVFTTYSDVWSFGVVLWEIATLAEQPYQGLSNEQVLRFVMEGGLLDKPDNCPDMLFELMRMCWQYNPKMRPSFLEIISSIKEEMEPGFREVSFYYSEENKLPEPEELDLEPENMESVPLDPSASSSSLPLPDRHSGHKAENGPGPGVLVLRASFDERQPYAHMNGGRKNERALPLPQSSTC
T7 sequence (Q16288 32-839): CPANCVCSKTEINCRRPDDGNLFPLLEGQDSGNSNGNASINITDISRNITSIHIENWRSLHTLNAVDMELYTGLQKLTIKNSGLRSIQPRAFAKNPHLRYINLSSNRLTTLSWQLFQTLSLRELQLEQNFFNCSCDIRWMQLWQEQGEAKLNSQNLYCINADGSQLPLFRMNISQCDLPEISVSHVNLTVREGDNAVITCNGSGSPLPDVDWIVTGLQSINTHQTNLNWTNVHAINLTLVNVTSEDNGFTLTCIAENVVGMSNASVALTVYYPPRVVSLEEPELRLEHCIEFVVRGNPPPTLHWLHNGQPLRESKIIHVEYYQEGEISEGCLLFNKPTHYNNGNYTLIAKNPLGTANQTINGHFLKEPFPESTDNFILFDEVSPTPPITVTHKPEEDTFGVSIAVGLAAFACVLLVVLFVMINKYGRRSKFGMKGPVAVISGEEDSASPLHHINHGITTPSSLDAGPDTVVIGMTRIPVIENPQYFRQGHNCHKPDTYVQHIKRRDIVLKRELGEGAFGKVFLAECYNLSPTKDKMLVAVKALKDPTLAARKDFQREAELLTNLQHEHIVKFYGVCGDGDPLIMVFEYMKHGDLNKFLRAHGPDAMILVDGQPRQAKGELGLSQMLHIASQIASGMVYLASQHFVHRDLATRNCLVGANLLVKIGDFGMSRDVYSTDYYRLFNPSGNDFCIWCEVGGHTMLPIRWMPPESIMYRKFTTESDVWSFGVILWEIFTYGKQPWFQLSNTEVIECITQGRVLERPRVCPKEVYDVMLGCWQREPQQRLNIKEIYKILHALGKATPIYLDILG

CC(C)C(C)CNCc1ccc2c(c1)[nH]/c(=N\C(=O)c1ccc(C3=CN=NC3)s1)n2CC(C)(C)O (centres unmarked) [BI 10N]
cell cycle profile (PMWK (ITKLO) cells): No cell cycle changes
cell cycle profile (RPMI 8322 (ITKHI) cells): increased the percentage of cells in the G0/G1 phase and decreased the percentage of cells in the S phase
cell cycle profile (VMM 39 (ITKHI) cells): increased the percentage of cells in the G0/G1 phase and decreased the percentage of cells in the S phase
concentration at which formation of the phosphorylated (active) form of ITK is inhibited [1]: ≥ 25 nM
decrease in migration [2]: about 50%
decrease in migration [3]: about 50%
IC50 (FYN): 24.2 nM
IC50 (ABL; Table 2, by Carna Biosciences): 23.5 nM
inhibition at 0.2 µM (ABL; single inhibitor concentration): 91.9%
IC50 (IGF1R; Table 2, by Carna Biosciences): 886 nM
inhibition at 0.2 µM (IGF1R; single inhibitor concentration): 19%
IC50 (LCK; Table 2, by Carna Biosciences): 10.6 nM
inhibition at 0.2 µM (LCK; single inhibitor concentration): 96.7%
IC50 (FGFR1; Table 2, by Carna Biosciences): 59.7 nM
inhibition at 0.2 µM (FGFR1; single inhibitor concentration): 80.2%
IC50 (TRKC): 1.58 nM
selectivity for ITK over TRKC (TRKC): about 10 fold
